Publication PMC11662004 (Communications Chemistry, 2024)
Values joined by “and” are separate entries in the source; they are usually repeats but may differ in a detail not shown here. Identical values can stand only once. Like-named read-outs stand apart in the source and are kept apart here.

Target: T1, NgTet1 (Naegleria gruberi, UniProt D2W6T1)
T1 construct: His6-tagged full-length Naegleria gruberi NgTet1 (321 a. a.) protein with a thrombin cleavage site; made in house; host or cells: E. coli BL21(DE3)
T1 sequence (D2W6T1 1-321): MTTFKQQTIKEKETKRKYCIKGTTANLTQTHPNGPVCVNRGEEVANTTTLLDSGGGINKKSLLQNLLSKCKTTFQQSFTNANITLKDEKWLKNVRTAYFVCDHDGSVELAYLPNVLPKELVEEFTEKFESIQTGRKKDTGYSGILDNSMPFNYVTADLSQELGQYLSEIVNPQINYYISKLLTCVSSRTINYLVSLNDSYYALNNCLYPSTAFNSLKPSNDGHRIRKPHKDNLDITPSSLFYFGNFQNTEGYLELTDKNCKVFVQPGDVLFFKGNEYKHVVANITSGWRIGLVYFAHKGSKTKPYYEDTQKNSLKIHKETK
Experiment: biochemical
Conditions: for IC50: 5 μM NgTet1, 50 μM 2OG; for normalised activity, %: NMR
Protocol: Activity was normalised against reactions containing vehicle (DMSO). […] AS data shown as the mean of three experimental replicates (n = 3; mean ± SD); ^1H NMR data plotted from two independent replicates (n = 2); tabulated data reported as the mean of two and three independent replicates for ^1H NMR and AS, respectively (n = 2–3, SD reported for n = 3). N. d.: not determined; AS: AlphaScreen.
All ^1H NMR spectra were recorded at 25 °C using D2O as a reference for internal deuterium lock on a Bruker Avance III 700 MHz equipped with an inverse TCI cryoprobe in 3 or 5 mm diameter tubes with a total sample volume of 160 or 565 μL, respectively. The water signal was reduced using Perfect Echo excitation sculpting suppression. Chemical shifts are reported in ppm relative to D2O (δH = 4.70 ppm).
NgTet1 was pre-incubated with inhibitor dilution series in DMSO-d6 at room temperature for 10 min (50 mM Tris-d11 [pH 7.5], 2% v/v DMSO-d6). Reactions were initiated by the addition of appropriate cofactors and DNA. […] The reactions were quenched by the addition of 9 mM NOG and 9 mM ZnCl2 in 90 mM Tris-d11 [pH 7.5] (20 μL) within the enzyme linear activity window (determined in Figure. S10). Samples were transferred to NMR tubes and subjected to ^1H NMR analysis. Data were processed as described above. Inhibition data was normalised to reactions containing vehicle only (1% v/v DMSO-d6) and fitted using “log(inhibitor) vs. response - Variable slope (four parameters)” non-linear regression model on GraphPad Prism 5.
Activity was normalised against reactions containing vehicle only (100% activity). Data is shown as the mean of 2 independent replicates (n = 2; […]
Fig. S10 Determination of linear NgTet1 enzymatic activity windows for inhibitor characterisation. a 1H NMR succinate detection time courses with no DNA, 5HC DNA (double- […]
complementary 5'-ACC AC5mC GGT GGT-3'). b AlphaScreen 5hmC detection time course using […]
courses shown. 1H NMR reaction conditions: 5 μM NgTet1, 2 mM sodium L-ascorbate, 100 μM […]
v/v D2O. DNA was added to a final concentration of 20 μM of double-stranded DNA. […]

O=C(O)CNC(=O)C(=O)O [NOG, N-oxalylglycine]
potency reduced in the presence of non-substrate 5HC DNA (1H NMR, uncoupled 2OG turnover): 5 fold | IC50 (2OG decarboxylation with 20 µM 5HC DNA, read-out: IC50, 5HC DNA, NMR): 23.4 µM | IC50 (2OG decarboxylation with 20 µM 5mC DNA, read-out: IC50, 5mC DNA, NMR): 4.9 µM | normalised activity, % (5HC DNA, -Log[inhibitor] (M) 3): 9.08% and 0% | normalised activity, % (5HC DNA, -Log[inhibitor] (M) 3.5): 14.96% and 8.89% | normalised activity, % (5HC DNA, -Log[inhibitor] (M) 4): 27.44% and 19.98% | normalised activity, % (5HC DNA, -Log[inhibitor] (M) 4.5): 46.19% and 37.58% | normalised activity, % (5HC DNA, -Log[inhibitor] (M) 5): 68.86% and 59.35% | normalised activity, % (5HC DNA, -Log[inhibitor] (M) 5.5): 85.6% and 77.94% | normalised activity, % (5HC DNA, -Log[inhibitor] (M) 6): 94.01% and 91.73% | normalised activity, % (5HC DNA, -Log[inhibitor] (M) 6.5): 98.78% and 94.75% | normalised activity, % (5HC DNA, -Log[inhibitor] (M) 7): 98.78% and 99.12% | normalised activity, % (5HC DNA, -Log[inhibitor] (M) 7.5): 97.21% and 98.4% | potency improved relative to AS assay (5mC DNA substrate-saturating conditions, 1H NMR): 40 fold | normalised activity, % (5mC DNA, -Log[inhibitor] (M) 2.47712): 3.86% and 2.962% | normalised activity, % (5mC DNA, -Log[inhibitor] (M) 2.95424): 3.763% and 4.321% | normalised activity, % (5mC DNA, -Log[inhibitor] (M) 3.43136): 5.679% and 6.122% | normalised activity, % (5mC DNA, -Log[inhibitor] (M) 3.90849): 9.059% and 9.958% | normalised activity, % (5mC DNA, -Log[inhibitor] (M) 4.38561): 18.3792% and 18.5451% | normalised activity, % (5mC DNA, -Log[inhibitor] (M) 4.86273): 32.2896% and 33.1008% | normalised activity, % (5mC DNA, -Log[inhibitor] (M) 5.33985): 53.2739% and 54.7766% | normalised activity, % (5mC DNA, -Log[inhibitor] (M) 5.81697): 75.7036% and 73.0834% | normalised activity, % (5mC DNA, -Log[inhibitor] (M) 6.29409): 86.8413% and 87.2847% | normalised activity, % (5mC DNA, -Log[inhibitor] (M) 6.77): 92.8024% and 96.8118% | normalised activity, % (5mC DNA, -Log[inhibitor] (M) 7.25): 100.282% and 100.776% | normalised activity, % (5mC DNA, -Log[inhibitor] (M) 7.73): 99.5779% and 101.189% | normalised activity, % (No DNA, -Log[inhibitor] (M) 2): 1.894% and 2.62% | normalised activity, % (No DNA, -Log[inhibitor] (M) 2.47712): 5.905% and 12.6681% | normalised activity, % (No DNA, -Log[inhibitor] (M) 3.43136): 23.7146% and 37.124% | normalised activity, % (No DNA, -Log[inhibitor] (M) 3.90849): 40.5302% and 59.4882% | normalised activity, % (No DNA, -Log[inhibitor] (M) 4.38561): 74.4281% and 76.6397% | normalised activity, % (No DNA, -Log[inhibitor] (M) 4.86273): 97.4209% and 83.0858% | normalised activity, % (No DNA, -Log[inhibitor] (M) 5.33985): 104.499% and 99.5811% | normalised activity, % (No DNA, -Log[inhibitor] (M) 5.81697): 103.384% and 101.173% | normalised activity, % (No DNA, -Log[inhibitor] (M) 6.29409): 102.321% and 96.0908% | IC50 (uncoupled 2OG decarboxylation, no DNA, read-out: IC50, No DNA, NMR): 118 µM
